Where two headings read alike, the source gives them in different places.
What was measured:
[1] = ref Rowland et al., 2007; cited from earlier work
[2] = assay type: in vivo, olive baboons (Papio Anubis)

Row | Cmax (maximum concentration) ([2]; baboon serum, single oral dose of NVP 5 mg/kg, solution formulation, n = 2, mean) [ng/mL] | ratio of the plasma level of 12-OHNVP and 4-CANVP ([2]; in vivo, 5 mg/kg) | ratio of the plasma level of 12-OHNVP and 4-CANVP ([2]; in vivo, 10 mg/kg) | Cmax (maximum concentration) ([2]; in vivo, po, 5 mg/kg) [ng/mL] | Cmax (maximum concentration) ([2]; in vivo, po, 10 mg/kg) [ng/mL] | Cmax (maximum concentration) ([2]; in vivo, po, 400 mg) [ng/mL] | Cmax (maximum concentration) ([2]; in vivo, po, 800 mg) [ng/mL] | SMILES | metabolites detected in human plasma (metabolic profile, in words) [1]
1 |  |  |  |  |  |  |  | Cc1cc(=O)[nH]c2c1NC(=O)c1cccnc1N2C1CC1 [2-OHNVP, 2-hydroxynevirapine] | major metabolites
2 | 144.90 ± 22.31 |  |  |  |  |  |  | O=C1Nc2c(C(=O)O)ccnc2N(C2CC2)c2ncccc21 [4-CANVP, nevirapine 4-carboxylic acid] | 
3 |  | 0.21 | 1.3 | 31.38 ± 10.59 | 275.25 ± 126.07 | 157.16 ± 7.06 | 385.38 ± 346.21 | O=C1Nc2c(CO)ccnc2N(C2CC2)c2ncccc21 [12-OHNVP] | major metabolites
4 |  |  |  |  |  |  |  | Cc1ccnc2c1NC(=O)c1cc(O)cnc1N2C1CC1 [8-OHNVP] | low plasma level
5 |  |  |  | 11.50 ± 3.63 | 19.69 ± 9.94 | 16.53 ± 1.10 | 72.85 ± 60.37 | Cc1c(O)cnc2c1NC(=O)c1cccnc1N2C1CC1 [3-OHNVP] | major metabolites

Source: paper PMC3118614 (Biomedical chromatography : BMC, 2010)
